We go through one compound from patent US12478613B2, “Selective MAO-B inhibitor DRG-MAOB-2 for use in treatment of neurodegenerative diseases” (BAHCESEHIR UNIVERSITESI, priority 2020, dated 2025).

The target of one assay is T1, human MAO-B (Homo sapiens, UniProt P27338).
T1 sequence (P27338 1-520): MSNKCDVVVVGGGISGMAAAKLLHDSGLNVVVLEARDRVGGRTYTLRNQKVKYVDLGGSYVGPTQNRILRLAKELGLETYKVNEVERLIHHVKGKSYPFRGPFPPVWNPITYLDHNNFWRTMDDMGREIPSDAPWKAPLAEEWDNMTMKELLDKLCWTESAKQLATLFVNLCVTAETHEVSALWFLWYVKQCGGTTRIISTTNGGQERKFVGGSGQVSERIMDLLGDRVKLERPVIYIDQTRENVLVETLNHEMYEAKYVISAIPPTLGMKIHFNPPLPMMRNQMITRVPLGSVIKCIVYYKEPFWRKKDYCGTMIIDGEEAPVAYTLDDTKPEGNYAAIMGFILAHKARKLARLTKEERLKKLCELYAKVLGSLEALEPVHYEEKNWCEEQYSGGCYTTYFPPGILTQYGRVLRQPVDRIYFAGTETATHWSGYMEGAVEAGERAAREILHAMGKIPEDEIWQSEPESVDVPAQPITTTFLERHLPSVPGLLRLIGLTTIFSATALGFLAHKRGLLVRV
Briefly: MAO inhibitory assay (kynuramine, fluorescence), MAO-B. The format is biochemical. Here is the method:
(§1) MAO inhibitory activity was assayed using the method of Novaroli et al. with minor modifications. Briefly, 140 μL of 0.1 M potassium phosphate buffer (pH 7.4), 8 μL of 0.75 mM kynuramine, and 2 μL of a dimethyl sulfoxide (DMSO) inhibitor solution (final DMSO concentration of 1% (v/v) and final concentrations of the inhibitors of 0-1 μM), were preincubated at 37° C. for 10 min. Diluted human recombinant enzyme (50 μL) was then added to obtain a final protein concentration of 0.0075 mg/mL (MAO-A) or 0.015 mg/mL (MAO-B) in the assay mixture. The reaction mixture was further incubated at 37° C. and the reaction was stopped after 20 min by the addition of 75 μL of 2 M NaOH. The product generated by MAO, 4-quinolinol, is fluorescent and was measured at Ex 310 nm/Em 400 nm using a microplate reader (Thermo Scientific-Multiskan GO). Each data points of samples were triplicate. The sample solution was replaced with DMSO to provide a negative control.

A further assay has as its target T2, human MAO-A (Homo sapiens, UniProt P21397).
T2 sequence (P21397 1-527): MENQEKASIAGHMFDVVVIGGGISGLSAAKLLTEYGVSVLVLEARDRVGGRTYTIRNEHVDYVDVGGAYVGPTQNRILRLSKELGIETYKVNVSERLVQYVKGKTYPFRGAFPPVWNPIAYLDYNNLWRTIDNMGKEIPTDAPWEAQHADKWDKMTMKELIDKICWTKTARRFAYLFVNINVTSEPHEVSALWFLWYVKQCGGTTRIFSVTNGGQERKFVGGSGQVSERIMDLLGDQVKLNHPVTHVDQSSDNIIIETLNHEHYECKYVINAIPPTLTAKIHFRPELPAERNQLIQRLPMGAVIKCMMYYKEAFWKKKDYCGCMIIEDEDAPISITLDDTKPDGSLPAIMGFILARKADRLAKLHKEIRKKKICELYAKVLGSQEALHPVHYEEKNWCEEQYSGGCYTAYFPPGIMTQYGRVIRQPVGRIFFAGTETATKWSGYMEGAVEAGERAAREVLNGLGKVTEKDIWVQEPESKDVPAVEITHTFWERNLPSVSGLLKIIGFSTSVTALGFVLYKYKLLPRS
Briefly: MAO inhibitory assay (kynuramine, fluorescence), MAO-A. The format is biochemical. The following applies: human recombinant enzyme, kynuramine substrate, 37° C., pH 7.4. On the procedure:
as §1

As to `COc1ccc(-c2cc(C(=O)NCCn3cnc4ccccc43)n[nH]2)cc1OC` [compound of formula I], the IC50 came out at 3.22 ± 0.02 nM at human MAO-B (human recombinant enzyme, kynuramine substrate, 37° C., pH 7.4) and 29.5 ± 1.1 nM at human MAO-A. In addition, on human MAO-B (ratio of IC50 MAO-A / MAO-B), the “fold more potent binding to MOA-B compared to MOA-A” value is “approximately 9 fold”.
